Results taken from patent publication US20210269453A1, “Bryoid Compositions, Methods of Making and Use Thereof” (Aphios Corporation, priority 2018, published 2021).

System: alpha-secretase
Test: Effect of purified Bryoids on alpha-secretase activity in SHSY-5Y neuroblastoma cells (FIG. 10)
Format: cell-based
Settings: 10-^9M, FIG. 10, relative to Bryostatin-1
Excerpt: FIG. 10 depicts the effect of Bryostatin-1 and different Bryoids at 10-^9M on alpha-secretase activity in SHSY-5Y neuroblastoma cells;
Purified Bryoids at 10-^9M are shown to increase alpha-secretase activity in SHSY-5Y neuroblastoma cells in FIG. 10.

Compound	alpha-secretase activity
CCC/C=C/C=C/C(=O)O[C@H]1[C@H]2C=C3C[C@H]([C@@H](C)O)OC(=O)C[C@H](O)C[C@@H]4C[C@H](OC(C)=O)C(C)(C)[C@](O)(C[C@@H]5C/C(=C\C(=O)OC)C[C@H](/C=C/C(C)(C)[C@]1(OC(=O)C2)O3)O5)O4 [Bryoid B3, Bryostatin-3]	improve the production of alpha-secretase over Bryostatin-1
bryostatin-3 26-ketone [Bryoid B16]	improve the production of alpha-secretase over Bryostatin-1
